Measured values as given in article PMC2891058 (Biochemistry, 2010).

Columns and labels:
[1] = target: S. typhimurium QAPRTase (quinolinate phosphoribosyltransferase) (Salmonella enterica, UniProt P30012, K285A); experiment: biochemical
[2] = target: S. typhimurium QAPRTase (quinolinate phosphoribosyltransferase) (Salmonella enterica, UniProt P30012); experiment: stopped-flow tryptophan fluorescence; format: binding
[3] = target: S. typhimurium QAPRTase (quinolinate phosphoribosyltransferase) (Salmonella enterica, UniProt P30012, E215Q); experiment: biochemical
[4] = target: S. typhimurium QAPRTase (quinolinate phosphoribosyltransferase) (Salmonella enterica, UniProt P30012, D236A); experiment: biochemical
[5] = target: S. typhimurium QAPRTase (quinolinate phosphoribosyltransferase) (Salmonella enterica, UniProt P30012, E215A); experiment: biochemical
[6] = target: S. typhimurium QAPRTase (quinolinate phosphoribosyltransferase) (Salmonella enterica, UniProt P30012, E215D); experiment: biochemical
[7] = target: S. typhimurium QAPRTase (quinolinate phosphoribosyltransferase) (Salmonella enterica, UniProt P30012, K154A); experiment: biochemical

O=P(O)(O)OC[C@H]1O[C@H](OP(=O)(O)OP(=O)(O)O)[C@H](O)[C@@H]1O [PRPP]
Kd [1]: ~1000 µM | Kd [2]: 53 µM | Kd [3]: 113 ± 24 µM | Kd [4]: 127 ± 25 µM | Kd [5]: 770 ± 200 µM | Kd [6]: 417 ± 76 µM | Kd [7]: > 1000 µM
